Consider 9 molecules from PubChem BioAssay AID1963956 (Xavier Lab, Infectious Disease and Microbiome Program, …, 2024).

The source made the active and inactive calls.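 The calls were made as follows: active = caspase-3 cutting of the mutant autophagy protein ATG16L1 lowered by over half at 20 µM; inactive = the rest.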

The assay addresses Autophagy-related protein 16-1 (Homo sapiens) (UniProt Q676U5). The assay is described as follows: blockers of caspase-3 processing of ATG16L1 variant – biochemical, AlphaLISA, recombinant protein, with or without FKBP12, dose response (AID 1963956). As to conditions: recombinant ATG16L1 T300A + caspase-3, AlphaLISA. For orientation: Bead proximity is the source of the signal in Alpha formats.

Chain of Autophagy-related protein 16-1 (Homo sapiens) (Q676U5 whole entry T300A, looked up): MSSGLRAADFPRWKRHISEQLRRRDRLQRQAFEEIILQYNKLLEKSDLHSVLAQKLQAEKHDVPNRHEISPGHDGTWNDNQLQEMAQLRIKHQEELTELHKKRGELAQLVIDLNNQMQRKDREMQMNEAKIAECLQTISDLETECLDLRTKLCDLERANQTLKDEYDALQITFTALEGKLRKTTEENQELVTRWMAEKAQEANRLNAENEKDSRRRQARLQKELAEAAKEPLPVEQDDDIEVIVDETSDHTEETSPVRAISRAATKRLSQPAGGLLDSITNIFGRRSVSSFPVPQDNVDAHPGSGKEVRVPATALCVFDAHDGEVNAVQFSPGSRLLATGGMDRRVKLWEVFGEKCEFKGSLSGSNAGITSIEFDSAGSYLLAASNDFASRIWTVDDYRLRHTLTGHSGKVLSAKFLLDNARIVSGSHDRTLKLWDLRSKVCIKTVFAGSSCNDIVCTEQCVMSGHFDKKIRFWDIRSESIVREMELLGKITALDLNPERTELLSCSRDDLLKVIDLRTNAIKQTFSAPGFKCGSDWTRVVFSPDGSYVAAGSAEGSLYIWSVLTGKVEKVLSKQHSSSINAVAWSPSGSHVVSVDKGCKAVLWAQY

Turning to `CCC(C)(C)C(=O)C(=O)N1CCCC[C@H]1C(=O)N[C@H](CCc1ccc(OC)cc1)C(=O)N1[C@@H]2CC[C@H]1CC(Nc1nc(NCCc3sc(N)nc3C)nc(N(C)Cc3nnc4n3CCC4)n1)C2` (some centres not stated), where the note is “without FKBP12”, the outcome was inactive.

For the molecule `CCC(C)(C)C(=O)C(=O)N1CCCC[C@H]1C(=O)N[C@H](CCc1ccc(OC)cc1)C(=O)N1[C@@H]2CC[C@H]1CC(NC(C)=O)C2` (some centres not stated), the outcome (without FKBP12) was inactive.

For the molecule `CCC(C)(C)C(=O)C(=O)N1CCCC[C@H]1C(=O)N[C@H](CCc1ccc(OC)cc1)C(=O)N1[C@@H]2CC[C@H]1CC(Nc1nc(NCCc3sc(N)nc3C)nc(NCc3ccnc(CO)c3)n1)C2` (some centres not stated), for the setting “without FKBP12”, the outcome was inactive.

For `CCC(C)(C)C(=O)C(=O)N1CCCC[C@H]1C(=O)N[C@H](CCc1ccc(OC)cc1)C(=O)N1CC[C@H](Nc2nc(NCCc3sc(N)nc3C)nc(N(C)Cc3nnc4n3CCC4)n2)C1`, the outcome (without FKBP12) was inactive.

`CCC(C)(C)C(=O)C(=O)N1CCCC[C@H]1C(=O)N[C@H](CCc1ccc(OC)cc1)C(=O)N1CC(Nc2nc(NCCc3sc(N)nc3C)nc(NCCn3cnc4ccccc43)n2)C1`: for the setting “without FKBP12”, the outcome was inactive.

In the case of `CCC(C)(C)C(=O)C(=O)N1CCCC[C@H]1C(=O)N[C@H](CCc1ccc(OC)cc1)C(=O)N1[C@@H]2CC[C@H]1CC(Nc1nc(NCCc3ccccc3)nc(N3CCn4ncnc4C3)n1)C2` (some centres not stated), the outcome reads like this: (with FKBP12) “inactive”; (without FKBP12) “inactive”.

Usually EC50 stands for the midpoint of the concentration-response curve. `CCC(C)(C)C(=O)C(=O)N1CCCC[C@H]1C(=O)N[C@H](CCc1ccc(OC)cc1)C(=O)N1[C@@H]2CC[C@H]1CC(Nc1nc(NCCc3sc(N)nc3C)nc(N3CCn4ncnc4C3)n1)C2` (some centres not stated): the EC50 was 10.8 µM (with FKBP12) and 12.1 µM (without FKBP12).

Turning to `CCC(C)(C)C(=O)C(=O)N1CCCC[C@H]1C(=O)N[C@H](CCc1ccc(OC)cc1)C(=O)N1[C@@H]2CC[C@H]1CC(Nc1nc(NCCc3sc(N)nc3C)nc(NCCn3cnc4ccccc43)n1)C2` (some centres not stated), for the setting “without FKBP12”, the result was inactive.

As for `CC(=O)N1[C@@H]2CC[C@H]1CC(Nc1nc(NCCc3sc(N)nc3C)nc(N3CCn4ncnc4C3)n1)C2` (some centres not stated), the result (with FKBP12) was inactive and the outcome (without FKBP12) was inactive.
